These results are taken from patent US20070117773A1, “Telomerase-inhibiting ENA oligonucleotide” (SANKYO COMPANY, LIMITED, priority 2004, published 2007).

In this test the test system is RNA oligonucleotide having the sequence of telomerase RNA (5′-UUGUCUAACCCUA-3′). Briefly: Test for determining melting temperature (Tm) with telomerase RNA oligonucleotide. As to conditions: 3.4 μM compound + 3.4 μM RNA oligonucleotide, 10 mM sodium phosphate buffer (pH 7.2), absorbance at 260 nm, 20° C. to 95° C. It counts as binding, human.
“HO-T^e2s-A^e2s-G^e2s-G^e2s-G^e2s-T^e2s-T^e2s-A^e2s-G^e2s-A^e2s-C^e2s-A^e2s-CH2CH2OH [Example 2]”: the “Tm (melting temperature)” value came to 87 °C. For the substance “HO-T^e2s-A^e2s-G^e2s-G^e2s-G^e2s-T^e2s-T^e2s-A^e2s-G^e2s-C^e2s-A^e2s-A^e2s-CH2CH2OH [Example 1]”, the “Tm (melting temperature)” value is 85 °C. With “HO-T^e2s-A^e2s-G^e2s-G^e2s-G^e2s-T^e2s-T^e2s-A^e2s-CH2CH2OH [Example 4]”, the “Tm (melting temperature)” value worked out at 62 °C. Consider “HO-T^e2s-A^e2s-G^e2s-G^e2s-G^e2s-T^e2s-T^e2s-A^e2s-G^e2s-A^e2s-CH2CH2OH [Example 3]”, for which the “Tm (melting temperature)” value turned out to be 74 °C. The value for “HO-T^e2s-A^e2s-G^e2s-G^e2s-G^e2s-T^e2s-T^e2s-CH2CH2OH [Example 5]” was 52 °C; that for “HO-T^e2s-A^e2s-G^e2s-G^e2s-G^e2s-T^e2s-T^e2s-A^e2s-G^e2s-CH2CH2OH [Example 6]” was 71 °C.
